Laboratory results from patent publication US20100119479A1, “THERAPEUTIC ANTIVIRAL PEPTIDES” (INTERMUNE, INC., priority 2008, published 2010).

Assays:
[1] = target: T1, full-length NS3/NS4A-2 (HCV NS3 protease) (Hepatitis C virus genotype 1b, UniProt Q9WMX2); experiment: NS3 Inhibition Assay (NS3-NS4 protease assay, RETS1 substrate); format: biochemical; details: NS3/NS4A-2 protease
T1 construct: Recombinant E. coli or Baculovirus full-length NS3; host or cells: E. coli or baculovirus (BV) expression
Method: NS3 Complex Formation with NS4A-2.
Recombinant E. coli or Baculovirus full-length NS3 was diluted to 3.33 μM with assay buffer and transferred material to an eppendorf tube and placed in a water bath in a 4° C. refrigerator. The appropriate amount of NS4A-2 diluted to […] in assay buffer was added to equal the volume of NS3 above (conversion factor—3.8 mg/272 μL assay buffer). The material was transferred to an eppendorf tube and placed in water bath in a 4° C. refrigerator.
After equilibration to 4° C., equal volumes of NS3 and NS4A-2 solutions were combined in an eppendorf tube, mix gently with a manual pipettor, and incubate mixture for 15 minutes in the 4° C. water bath. Final concentrations in the mixture are 1.67 μM NS3, 4.15 mM NS4A-2 (2485-fold molar excess NS4A-2).
After 15 minutes at 4° C., the NS3/NS4A-2 eppendorf tube was removed and place it in a room temperature water bath for 10 minutes. NS3/NS4A-2 was aliquoted at appropriate volumes and store at −80° C. (E. coli NS3 run at 2 nM in assay, aliquot at 25 μL. BV NS3 run at 3 nM in assay, aliquot at 30 μL).
Step a. Sample compounds were dissolved to 10 mM in DMSO then diluted to 2.5 mM (1:4) in DMSO. Typically, compounds were added to an assay plate at 2.5 mM concentration, yielding upon dilution a starting concentration of 50 microM in the assay inhibition curve. Compounds were serial diluted in assay buffer to provide test solutions at lower concentrations.
Step b. The E. coli. NS3/NS4A-2 was diluted to 4 nM NS3 (1:417.5 of 1.67 μM stock−18 μL1.67 μM stock+7497 μL assay buffer). The BV NS3/NS4A-2 was diluted to 6 nM NS3 (1:278.3 of 1.67 μM stock−24 μL1.67 μM stock+6655 μL assay buffer).
Step c. Using the manual multichannel pipettor, and being careful not to introduce bubbles into the plate, 50 μL assay buffer were added to wells A01-H01 of a black Costar 96-well polypropylene storage plate.
Step d. Using the manual multichannel pipettor, and being careful not to introduce bubbles into the plate, 50 μL of diluted NS3/NS4A-2 from Step b were added to wells A02-H12 of the plate in Step c.
Step e. Using the manual multichannel pipettor, and being careful not to introduce bubbles into the plate, 25 μL of the wells in drug dilution plate in Step a were transferred to corresponding wells in assay plate in Step d. The tips on the multichannel pipettor were changed for each row of compounds transferred.
Step f Using the manual multichannel pipettor, and being careful not to introduce bubbles into the plate, the contentes of the wells from the assay plate in Step e were mixed by aspirating and dispensing 35 μL of the 75 μL in each well five times. The tips on multichannel pipettor were changed for each row of wells mixed.
Step g. The plate was covered with a polystyrene plate lid, and the plate from Step f containing NS3 protease and sample compounds was pre-incubated 10 minutes at room temperature.
While plate from Step g is pre-incubating, the RETS1 substrate was diluted in a 15 mL polypropylene centrifuge tube. The RETS1 substrate was diluted to 8 μM (1:80.75 of 646 μM stock—65 μL 646 μM stock+5184 μL assay buffer).
After the plate in Step g was done pre-incubating, and using the manual multichannel, 25 μL of substrate were added to all wells on the plate. The contents of the wells of the plate were quickly mixed, as in Step f, mixing 65 μL of the 100 μL in the wells.
The plate was read in kinetic mode on the Molecular Devices SpectraMax Gemini XS plate reader. Reader settings: Read time: 30 minutes, Interval: 36 seconds, Reads: 51, Excitation λ: 335 nm, Emission λ: 495 nm, cutoff: 475 nm, Automix: off, Calibrate: once, PMT: high, Reads/well: 6, Vmax pts: 21 or 28/51 depending on length of linearity of reaction
IC50s are determined using a four parameter curve fit equation, and converted to Ki's using the following Km's: […]
Full-length E. coli NS3−2.03 μM
Full-length BV NS3−1.74 μM
where Ki=IC50/(1+[S]/Km))

[2] = tested on: HCV sub-genomic replicon, GS4.3 (HuH-7 hepatoma cells); experiment: Quantitation by ELISA of NPTII in the HCV sub-genomic replicon, GS4.3; format: cell-based; details: Hepatitis C virus, GS4.3 replicon cells, 72 h incubation
Text: Quantitation by ELISA of the Selectable Marker Protein, Neomycin Phosphotransferase II (NPTII) in the HCV Sub-Genomic Replicon, GS4.3
The HCV sub-genomic replicon (1377/NS3-3′, accession No. AJ242652), stably maintained in HuH-7 hepatoma cells, was created by Lohmann et al. Science 285: 110-113 (1999). The replicon-containing cell culture, designated GS4.3, was obtained from Dr. Christoph Seeger of the Institute for Cancer Research, Fox Chase Cancer Center, Philadelphia, Pa.
GS4.3 cells were maintained at 37° C., 5% CO2, in DMEM (Gibco 11965-092) supplemented with L-glutamine 200 mM (100×) (Gibco25030-081), non-essential amino acids (NEAA)(Biowhittaker 13-114E), heat-inactivated (HI) Fetal Bovine Serum(FBS)(Hyclone SH3007.03) and 750 μg/mL geneticin (G418)(Gibco 10131-035). Cells were sub-divided 1:3 or 4 every 2-3 days.
24 h prior to the assay, GS4.3 cells were collected, counted, and plated in 96-well plates (Costar 3585) at 7500 cells/well in […] standard maintenance medium (above) and incubated in the conditions above. To initiate the assay, culture medium was removed, cells were washed once with PBS (Gibco 10010-023) and 90 μl Assay Medium (DMEM, L-glutamine, NEAA, 10% HI FBS, no G418) was added. Inhibitors were made as a 10× stock in Assay Medium, (3-fold dilutions from 10 μM to […] final concentration, final DMSO concentration 1%), […] were added to duplicate wells, plates were rocked to mix, and incubated as above for 72 h.
An NPTII Elisa kit was obtained from AGDIA, Inc. (Compound direct ELISA test system for Neomycin Phosphotransferase II, PSP 73000/4800). Manufacturer's instructions were followed, with some modifications. 10×PEB-1 lysis buffer was made up to include 500 μM PMSF (Sigma P7626, 50 mM stock in isopropanol). After 72 h incubation, cells were washed once with PBS and […] PEB-1 with PMSF was added per well. Plates were agitated vigorously for 15 minutes, room temperature, then frozen at −70° C. Plates were thawed, lysates were mixed thoroughly, and 100 μl were applied to an NPTII Elisa plate. A standard curve was made. Lysate from DMSO-treated control cells was pooled, serially diluted with PEB-1 with PMSF, and applied to duplicate wells of the ELISA plate, in a range of initial lysate amount of 150 μL-2.5 μL. In addition, 100 μL buffer alone was applied in duplicate as a blank. Plates were sealed and gently agitated at room temperature for 2 h. Following capture incubation, the plates were washed 5×300 μL with PBS-T (0.5% Tween-20, PBS-T was supplied in the ELISA kit). For detection, a 1× dilution of enzyme conjugate diluent MRS-2 (5×) was made in PBS-T, into which 1:100 dilutions of enzyme conjugates A and B were added, as per instructions. Plates were resealed, and incubated with agitation, covered, room temperature, for 2 h. The washing was then repeated and 100 μL, of room temperature TMB substrate was added. After approximately 30 minutes incubation (room temperature, agitation, covered), the reaction was stopped with 50 μL, 3M sulfuric acid. Plates were read at 450 nm on a Molecular Devices Versamax plate reader.
Inhibitor effect was expressed as a percentage of DMSO-treated control signal, and inhibition curves were calculated using a 4-parameter equation: y=A+((B−A)/(1+((C/x)̂D))), where C is half-maximal activity or EC50.

T1 sequence (Q9WMX2 1027-1657): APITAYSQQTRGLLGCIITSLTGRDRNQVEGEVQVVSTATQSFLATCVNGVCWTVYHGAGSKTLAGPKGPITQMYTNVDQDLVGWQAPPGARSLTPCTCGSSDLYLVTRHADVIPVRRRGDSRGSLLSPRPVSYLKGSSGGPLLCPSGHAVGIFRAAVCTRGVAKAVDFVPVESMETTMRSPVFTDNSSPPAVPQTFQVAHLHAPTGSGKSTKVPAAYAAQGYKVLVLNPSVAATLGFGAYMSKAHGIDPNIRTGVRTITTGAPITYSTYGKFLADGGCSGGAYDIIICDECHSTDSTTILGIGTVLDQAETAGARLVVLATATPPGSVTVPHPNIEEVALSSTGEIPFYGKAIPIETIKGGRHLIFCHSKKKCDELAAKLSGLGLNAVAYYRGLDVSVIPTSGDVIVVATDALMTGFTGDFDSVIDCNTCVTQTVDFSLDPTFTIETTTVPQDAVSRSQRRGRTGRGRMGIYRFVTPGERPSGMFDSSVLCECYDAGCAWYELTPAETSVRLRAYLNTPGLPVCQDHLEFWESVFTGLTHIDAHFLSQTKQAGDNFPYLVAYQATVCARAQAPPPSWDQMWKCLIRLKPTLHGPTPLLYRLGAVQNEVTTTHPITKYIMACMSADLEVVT
T1 sequence (Q9WMX2 1658-1711): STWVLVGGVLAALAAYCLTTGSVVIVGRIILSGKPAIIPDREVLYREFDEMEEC

Work on CC[C@@H]1C[C@]1(NC(=O)[C@@H]1C[C@@H](OC(=O)N2Cc3cccc(F)c3C2)CN1C(=O)[C@@H](Nc1cccc(COCC2(C)COC2)c1)C(C)(C)C)C(=O)NS(=O)(=O)C1CC1 [Compound 14] yielded an IC50 [1] of less than 100 nM and an EC50 [2] of 100 to 1000 nM.
CC[C@@H]1C[C@]1(NC(=O)[C@@H]1C[C@@H](OC(=O)N2Cc3cccc(F)c3C2)CN1C(=O)[C@@H](Nc1ccc(F)c(C#N)c1)C(C)(C)C)C(=O)NS(=O)(=O)C1CC1 [Compound 15] was tested, and the IC50 [1] was less than 100 nM and the EC50 [2] was 100 to 1000 nM.
Compound CC[C@@H]1C[C@]1(NC(=O)[C@@H]1C[C@@H](OC(=O)N2Cc3cccc(F)c3C2)CN1C(=O)[C@@H](Nc1ccc(-n2cccn2)cc1)C(C)(C)C)C(=O)NS(=O)(=O)C1CC1 [Compound 16] has an IC50 [1] of less than 100 nM and an EC50 [2] of 100 to 1000 nM.
CC[C@@H]1C[C@]1(NC(=O)[C@@H]1C[C@@H](OC(=O)N2Cc3cccc(F)c3C2)CN1C(=O)[C@@H](Nc1ccc(S(=O)(=O)N2CCNCC2)cc1)C(C)(C)C)C(=O)NS(=O)(=O)C1CC1 [Compound 17] showed an IC50 [1] of less than 100 nM and an EC50 [2] greater than 1000 nM.
Compound CC[C@@H]1C[C@]1(NC(=O)[C@@H]1C[C@@H](OC(=O)N2Cc3ccc(NC(=O)COCCOCCOC)cc3C2)CN1C(=O)[C@@H](Nc1cc(F)cc(C(F)(F)F)c1)C(C)(C)C)C(=O)NS(=O)(=O)C1CC1 [Compound 18] has an IC50 [1] of 100 to 1000 nM and an EC50 [2] of 100 to 1000 nM.
With CC[C@@H]1C[C@]1(NC(=O)[C@@H]1C[C@@H](OC(=O)N2Cc3ccc(NC(=O)COC)cc3C2)CN1C(=O)[C@@H](Nc1cc(F)cc(C(F)(F)F)c1)C(C)(C)C)C(=O)NS(=O)(=O)C1CC1 [Compound 19] the IC50 [1] was less than 100 nM and the EC50 [2] was less than 100 nM.
Compound CC[C@@H]1C[C@]1(NC(=O)[C@@H]1C[C@@H](OC(=O)N2Cc3ccc(NC(=O)CN4CCOCC4)cc3C2)CN1C(=O)[C@@H](Nc1cc(F)cc(C(F)(F)F)c1)C(C)(C)C)C(=O)NS(=O)(=O)C1CC1 [Compound 20] has an IC50 [1] of less than 100 nM and an EC50 [2] of less than 100 nM.
Compound C=C[C@@H]1C[C@]1(NC(=O)[C@H]1Cc2cc(Oc3cccc(Cl)c3)ccc2CN1C(=O)[C@@H](Nc1cccc(C(F)(F)F)c1)C(C)(C)C)C(=O)NS(=O)(=O)C1(C)CC1 [Compound 22] has an IC50 [1] of less than 100 nM and an EC50 [2] greater than 1000 nM.
For C=C[C@@H]1C[C@]1(NC(=O)[C@@H]1Cc2cc(Oc3cccc(Cl)c3)ccc2CN1C(=O)[C@@H](Nc1cccc(C(F)(F)F)c1)C(C)(C)C)C(=O)NS(=O)(=O)C1CC1 [Compound 23], the IC50 [1] was less than 100 nM and the EC50 [2] was greater than 1000 nM.
With C=C[C@@H]1C[C@]1(NC(=O)[C@H]1Cc2cc(Oc3cccc(Cl)c3)ccc2CN1C(=O)[C@@H](Nc1cccc(C(F)(F)F)c1)C(C)(C)C)C(=O)NS(=O)(=O)C1CC1 [Compound 24] the IC50 [1] was less than 100 nM and the EC50 [2] was greater than 1000 nM.
CC[C@@H]1C[C@]1(NC(=O)[C@@H]1C[C@@H](Oc2cc(-c3ccccc3)nc3cc(OC)ccc23)CN1C(=O)[C@@H](Nc1cccc(C(F)(F)F)c1)C(C)(C)C)C(=O)NS(=O)(=O)C1(C)CC1 [Compound 230] showed an IC50 [1] of less than 100 nM and an EC50 [2] of less than 100 nM.
CC[C@@H]1C[C@]1(NC(=O)[C@@H]1C[C@@H](Oc2nc3ccccc3s2)CN1C(=O)[C@@H](Nc1cccc(C(F)(F)F)c1)C(C)(C)C)C(=O)NS(=O)(=O)C1(C)CC1 [Compound 231] showed an IC50 [1] of less than 100 nM and an EC50 [2] of less than 100 nM.
CC[C@@H]1C[C@]1(NC(=O)[C@@H]1C[C@@H](Oc2nc3ccccc3n2CC)CN1C(=O)[C@@H](Nc1cccc(C(F)(F)F)c1)C(C)(C)C)C(=O)NS(=O)(=O)C1(C)CC1 [Compound 232] was tested, and the IC50 [1] was less than 100 nM and the EC50 [2] was less than 100 nM.
C=C[C@@H]1C[C@]1(NC(=O)[C@@H]1C[C@@H](Oc2cc(-c3ccccc3)nc3cc(OC)ccc23)CN1C(=O)[C@@H](Nc1cc(F)cc(C(F)(F)F)c1)C(C)(C)C)C(=O)NS(=O)(=O)C1(C)CC1 [Compound 281] was tested, and the IC50 [1] was less than 100 nM and the EC50 [2] was less than 100 nM.
CC[C@@H]1C[C@]1(NC(=O)[C@@H]1C[C@@H](OC(=O)N2Cc3cccc(Cl)c3C2)CN1C(=O)[C@@H](Nc1cccc(C(F)(F)F)c1)C(C)(C)C)C(=O)NS(=O)(=O)C1(C)CC1 [Compound 282] gave an IC50 [1] of less than 100 nM and an EC50 [2] of less than 100 nM.
Work on CC[C@@H]1C[C@]1(NC(=O)[C@@H]1C[C@@H](OC(=O)N2Cc3cccc(Cl)c3C2)CN1C(=O)[C@@H](Nc1cc(F)cc(C(F)(F)F)c1)C(C)(C)C)C(=O)NS(=O)(=O)C1(C)CC1 [Compound 283] yielded an IC50 [1] of less than 100 nM and an EC50 [2] of less than 100 nM.
CC[C@@H]1C[C@]1(NC(=O)[C@@H]1C[C@@H](OC(=O)N2Cc3cccc(Cl)c3C2)CN1C(=O)[C@@H](Nc1ccc(F)c(C(F)(F)F)c1)C(C)(C)C)C(=O)NS(=O)(=O)C1(C)CC1 [Compound 284] was tested, and the IC50 [1] was less than 100 nM and the EC50 [2] was less than 100 nM.
C=C[C@@H]1C[C@]1(NC(=O)[C@@H]1C[C@@H](Oc2nccc3ccccc23)CN1C(=O)[C@@H](Nc1cc(F)cc(C(F)(F)F)c1)C(C)(C)C)C(=O)NS(=O)(=O)C1(C)CC1 [Compound 287] gave an IC50 [1] of less than 100 nM and an EC50 [2] of less than 100 nM.
